Among the data in a melting point compilation (Tetko et al.; mined from patent text by program, amines drawn as free bases though some values may be those of a salt) are melting point values, retold here.

As to `COc1ccc(CN2C(=O)[C@H](CO)[C@H]2S(=O)(=O)C(C)(C)C)c(OC)c1`, the melting point – broadly, the temperature, or range, at which the solid turns liquid – fell in the range of 124 to 125 °C.

Compound `Nc1ccc(CCc2ccc(OCc3ccccc3)c(OCc3ccccc3)c2)cc1` returned a melting point of 97 to 101 °C.

The compound `CC(C)OC(=O)C1C2CCC(C2)C1n1cc(F)c(=O)[nH]c1=O` (stereo not given) displayed a melting point of 135 to 136 °C.

In turn, `O=C1CCCc2c1c1cccc(Cl)c1n2Cc1ccccc1` came in with a melting point of 161 to 162 °C.

Take `CCC(=O)Nc1csc(Br)n1`: the melting point lay in the range of 122 to 125 °C.

`CC(C)(O)C#Cc1ccc(-c2ccc(F)cc2)cc1`: the melting point is 118 °C.

With `O=c1sc(CO)c(C(F)(F)F)n1-c1ccccc1`, the melting point amounted to 135 °C.

In turn, `CC(C)(C)OC(=O)[C@@H]1CS[C@H](c2cccnc2)N1C(=O)CNC(=O)Nc1cccc(C(=O)O)c1` came in with a melting point of 147 °C.

`c1ccc(C(c2ccccc2)N2CCN(CCCOc3ccc4nncn4n3)CC2)cc1` returned a melting point of 132 to 134 °C.

Turning to `COc1ccc2nnc3ccc(OC)cc3c2c1`, the melting point is 170 to 172 °C.

Compound `CCCCN(C)C(=O)CSCCCCCOc1ccc(C2=C(c3ccccc3)CCCc3cc(O)ccc32)cc1` yielded a melting point of 112 to 114 °C.

As for `COC(=O)c1cccc([N+](=O)[O-])c1Cl`, the melting point was 68 to 70 °C.

As to `Cc1cc(O)c(SC23CC4CC(CC(C4)C2)C3)c(=O)o1`, the melting point amounted to 176 °C.

In turn, `CCNC(=O)n1ccc(O)cc1=O` returned a melting point of 272 °C.

With `CCOC(=O)C(=O)Nc1cc(C(=O)O)ccc1O`, the melting point is greater than 300 °C.

On to `COc1cc(CCCC2OC(=O)NC2=O)ccc1OCc1csc(-c2ccccc2)n1` (stereo not given), for which the melting point lay in the range of 96 to 97 °C.

The compound `Cc1ccc2c(c1)C(O)(c1ccc3c(c1)OCO3)C(=O)N2Cc1ccc(Cl)cc1` (stereo not given) had a melting point of 122 to 124 °C.

`CCCCOc1c(CNC(=O)OC(C)(C)C)n(CC(C)C)c(=O)c2ccc(NC(C)=O)cc12` yielded a melting point of 174 to 175 °C.

As for `O=C(C=Cc1c(Cl)cccc1Cl)N1CCc2c([nH]c3ccccc23)C1c1ccc2c(c1)OCO2` (stereo not given), the melting point lay in the range of 118 to 120 °C.

In turn, `O=C(OCC(=O)N1CCCCC1)c1ccc(O)cc1` displayed a melting point of 160 to 164 °C.

In the case of `CCCOc1cccc2c1C(N)=NS(=O)(=O)N2`, the melting point was in the range of 229 to 230 °C.

Compound `COc1ccc(F)cc1C(C)(C)CC(O)(CN1CCSc2ccccc21)C(F)(F)F` (stereo not given) displayed a melting point of 103 to 104 °C.

The compound `COC(=O)Nc1c(Cl)ccc(Br)c1F` yielded a melting point of 107 to 112 °C.

The compound `Nc1sc2c(c1C(=O)c1ccc(Cl)c3ccccc13)CCCC2` yielded a melting point of 179 to 181 °C.

The compound `CN(c1cccc2cc(-c3nccs3)[nH]c12)S(=O)(=O)c1ccsc1C(C)(C)O` registered a melting point of 153 °C.

Compound `COc1ccc(C2COc3c(ccc(O)c3C)C2)cc1OC` (stereo not given) had a melting point of 125 to 127 °C.

`COc1ccc(C2=NNC(=O)CC2c2ccc(OC)c(F)c2)cc1F` (stereo not given) returned a melting point of 196 to 198 °C.

Turning to `OC(CCN1CC=C(c2ccccc2)CC1)c1ccc(CCc2ccc(Cl)cc2)cc1` (stereo not given), the melting point is 158 to 160 °C.

Consider `CC(C)(C)OC(=O)Nc1cc(OC(C)(C)C)c(C#Cc2ccc(F)cc2)cc1N`, for which the melting point is 183 °C.

Compound `Clc1ccc(C2(Cn3ccnc3)OCC(COc3ccc(N4CCN(c5ccc(-n6cnnn6)cc5)CC4)cc3)O2)c(Cl)c1` (stereo not given) yielded a melting point of 201 °C.

In turn, `Cc1cccc2c(-c3ccc(Cl)cc3)onc12` returned a melting point of 134 to 136 °C.

The compound `C1=Cc2c3c(ccc2=N1)=CC=N3` yielded a melting point of 201 to 205 °C.

`CNC(=O)N1C[C@@H](Oc2cccc(C(F)(F)F)c2)[C@@H]1C` (relative stereo) displayed a melting point of 89 to 91 °C.

Take `Cc1cccc(Nc2n[nH]c3ncnc(NCc4ccccc4)c23)c1`: the melting point lay within 200 to 201 °C.

In turn, `CC(=O)Oc1cc(OC(C)=O)c2ccccc2c1OC(C)=O` showed a melting point of 136 to 137 °C.

Turning to `COc1cc2cc(C3=CCN(C)CC3)oc2cc1OC`, the melting point was 73 to 75 °C.

`C=C(CC1(CC)C(=O)CCC1=O)C1=CCCc2cc(OC)ccc21`: the melting point is 100 to 125 °C.

The compound `CC(C)N1C(=O)CC(C(=O)O)C1c1ccccc1` (stereo not given) yielded a melting point of 126 to 134 °C.

Consider `Cc1cc2cnnc(OCc3ccc(F)cc3)c2n1Cc1ccccc1`, for which the melting point was 127 to 132 °C.

Take `O=c1cc(O)cc(CBr)o1`: the melting point lay in the range of 77 to 78 °C.

The compound `O=c1[nH]c2cc(F)ccc2n(C2CCCCC2)c1=O` displayed a melting point of 290 °C.

`O=C(CCNc1c(C(=O)O)[nH]c2cc(Cl)ccc12)c1ccc(F)c(F)c1` displayed a melting point of 260 to 264 °C.

`Cc1nc(N)c2nc(C)n(CC3(O)CCC3)c2c1C` registered a melting point greater than 250 °C.

Turning to `Nc1cc(=O)n(Cc2ccc(Br)cc2)[nH]1`, the melting point is 139 °C.

Compound `O=C(NC(Cc1ccc(OCc2ccc(Cl)cc2)cc1)C(=O)O)c1cc2ccc(-c3ccc(Cl)cc3)cc2o1` (stereo not given) returned a melting point of 195 °C.

For the compound `CC(C)N1C(=O)N=C(SCc2ccccc2)NS1(=O)=O`, the melting point lay within 124 to 130 °C.

As for `COC(=O)c1cn(-c2ccc(F)cc2)c(-c2ccc(N(C)C)c(C)c2)cc1=O`, the melting point fell in the range of 217 to 220 °C.

For `CC(=O)CC(=O)Nc1cccc(OC(=O)NC2CCCCC2)c1`, the melting point was 159 °C.

`Cc1nc(C#N)c2n1-c1ccc(Cl)cc1C(c1ccccc1)=NC2` gave a melting point of 228 to 229 °C.

Take `OCc1ccccc1-c1ccc2nc(-c3ccc(Cl)cc3)cn2c1`: the melting point was in the range of 164 to 166 °C.

In turn, `CC(C)(C)C(O)C(Cn1ccnc1)Oc1ccc(Cl)cc1` (stereo not given) came in with a melting point of 163 to 170 °C.

For `Cc1nc(-c2ccc(C(F)(F)F)cc2)oc1CSc1ccc(OCC(=O)O)cc1`, the melting point lay within 131 to 133 °C.

Consider `CC(=O)c1c(C)c2c(c(C)c1O)OC(C)(C)C(C)C2` (stereo not given), for which the melting point lay in the range of 87 to 90 °C.

`C=CCCCCCCCCCN1C(=O)c2ccccc2C1=O`: the melting point lay within 25 to 30 °C.

Turning to `Cc1ccc(N(C)CCC(C)NCC(O)c2ccc(O)c(C(N)=O)c2)cc1` (stereo not given), the melting point fell in the range of 123 to 126 °C.

`N#Cc1ccc(O)c(O)c1O` came in with a melting point of 172 °C.

Take `CCN(Cc1cc(Br)ccc1OCc1ccccc1)c1ncc(C(=O)NS(=O)(=O)c2ccccc2)s1`: the melting point was in the range of 140 to 145 °C.

In the case of `CCO/C=C/C(=O)Nc1cccc(Br)c1OC`, the melting point lay within 102 to 104 °C.

Compound `Cc1ccc(S(=O)(=O)Nc2cccc(-c3cc(O)c(SCCc4ccccc4)c(=O)o3)c2)cc1` had a melting point of 133 to 135 °C.

In turn, `COc1ccc(CCN(C)C)c2[nH]c(C(F)(F)F)nc12` gave a melting point of 182 to 185 °C.

With `COCOc1ccc(C=CC(=O)C=Cc2ccc(OCOC)c(OC)c2)cc1OC`, the melting point fell in the range of 81 to 82 °C.

The compound `Cn1c(CC(=O)O)ccc1C(=O)c1ccc(Br)cc1` registered a melting point of 188 °C.

Take `c1cc2nc3c(n2nc1N1CCCCC1)CCCC3`: the melting point lay in the range of 184 to 185 °C.

`Cc1cc(C(N)=O)nn1CCO` had a melting point of 170 to 172 °C.

`CC(C)(C)C1=C(C#N)C(c2cccc(C#N)c2Br)c2c[nH]nc2N1` (stereo not given) registered a melting point of 251 °C.

As to `CC(C)(C)OC(=O)OC(=O)c1ccc(NNC(N)=S)cc1`, the melting point lay in the range of 161 to 163 °C.

For the compound `COc1cn(C(C)(C)C(=O)N(C)C)nc1-c1ccccc1`, the melting point is 114 to 116 °C.

`CCOC(=O)C1=C(C)Nc2nc(N3CCOCC3)nc(N3CCOCC3)c2C1c1ccccc1[N+](=O)[O-]` (stereo not given) registered a melting point of 201 °C.

The compound `O=C(CCS)N[C@@H](Cc1c[nH]cn1)C(=O)O` showed a melting point of 219 °C.

`COc1ccc2nc(Cl)nc(N(C)c3ccccc3)c2c1` came in with a melting point of 133 to 134 °C.

Consider `CCCCN(C)C(=O)OCCCc1ccc(OCCOC)cc1Oc1ncc(C(F)(F)F)cc1Cl`, for which the melting point was in the range of 54 to 55.2 °C.

With `CC(C)(C)OC(=O)N1CCC2(Cc3ccc(C#N)cc3)C(=O)N(c3cc(Cl)nc(Cl)c3)C(=O)N12` (stereo not given), the melting point amounted to 179 °C.

With `O=C(c1cccs1)c1cc(Cc2ccccc2)c(O)c2ccccc12`, the melting point was in the range of 150 to 152 °C.

`Cc1ccccc1C(Nc1ccncc1)c1ccccc1` (stereo not given) yielded a melting point of 141 to 143 °C.

In turn, `CC(=O)c1c(C)nc2c(OCc3c(Cl)ccc(S(=O)(=O)N4CCC[C@H]4C(=O)NCCCNC(=O)c4ccc(C#N)cc4)c3Cl)cccn12` returned a melting point of 100 to 102 °C.

`COc1ccc2c3c(c(=O)oc2c1)CN(Cc1ccc([N+](=O)[O-])cc1)CC3` yielded a melting point of 176 to 178 °C.

For the compound `CC(=Cc1ccc(O)cc1)c1ccc2c(c1)C(C)(C)C(O)C2(C)C` (stereo not given), the melting point lay within 148 to 149 °C.

In turn, `O=c1c2ccccc2c(-c2ccccc2)cn1CCCO` returned a melting point of 84 °C.

As for `CCCCNc1cc(C(=O)OC)cc(S(N)(=O)=O)c1Oc1ccccc1`, the melting point stood at 146 °C.

Turning to `Nn1cccc1C(=O)c1ccccc1`, the melting point lay in the range of 65 to 69 °C.

Regarding `COc1cccc(Cl)c1-c1cc2c(c3c1C(=O)NC3=O)c1cc(O)ccc1n2CCN1CCOCC1`, the melting point came out at 185 °C.

Turning to `CCOC(=O)c1ccc(OCC(C)O)cc1` (stereo not given), the melting point fell in the range of 52 to 53 °C.

`Fc1ccc(Cn2c(NC3CCN(CCc4cn5ccccc5n4)CC3)nc3ccccc32)cc1` registered a melting point of 208 °C.

As for `COc1cc2ncc(C#N)c(Nc3ccc(F)c(Cl)c3)c2cc1NC(=O)C=CCN1CCC(O)(O)CC1`, the melting point lay within 225 to 230 °C.

`N#Cc1c(Br)c(Br)n(Cc2ccccc2)c1-c1ccc(C(F)(F)F)cc1` came in with a melting point of 145 to 147 °C.

As to `COc1ccc(C2CCc3cc(CC(=O)O)cc(Cl)c3N2)cc1` (stereo not given), the melting point fell in the range of 140 to 141 °C.

In the case of `CCc1ccccc1NC(=O)c1ccccc1CN1C(=O)C2(COc3cc4c(cc32)CCO4)c2ccccc21` (stereo not given), the melting point fell in the range of 184 to 186 °C.

`COc1cc(-c2c(Cl)c(CN3C(=O)CCC3=O)nc3sc4c(c23)CCNC4)ccc1OC(C)C`: the melting point fell in the range of 175 to 176 °C.

For `CNC(=S)NS(=O)(=O)c1cc(CCNC(=O)c2cc(C(C)(C)C)ccc2OC)ccc1OC`, the melting point was in the range of 165 to 168 °C.

The compound `O=C1OC(=O)c2cc(C(F)(F)F)ccc21` registered a melting point of 54 °C.
